The results in this text go back to patent US20250223560A1, “NOX4 INHIBITOR COMPOSITIONS AND METHODS FOR REGENERATION OF DYSTROPHIC MUSCLE” (FULCRUM THERAPEUTICS, INC., priority 2022, published 2025).

The IC50 is the concentration that gives 50% inhibition.

Molecules are shown by their SMILES. Read-outs that look alike come from different tables or passages of the source.

Test [1] relates to Bone Marrow Derived Mesenchymal Stem Cells, human (BM-MSC); myofibroblast content. Nature of the test: Myofibroblast reduction phenotype in TGF-beta-1 fibrogenic differentiation culture (high-content imaging). It is filed as cell-based. The procedure: (§1) Bone Marrow Derived Mesenchymal Stem Cells, human (BM-MSC, ATCC PCS-500-012) were cultured in medium composed of Mesenchymal Stem Cell Basal Medium foe Adipose, Umbilcal and Bone Marrow-derived MSCs (ATCC PCS-400030 and Mesenchymal Stem Cell Growth for Bone Marrow-derived MSCs (ATCC PCS-500-041). Cells were seeded at a density of 15,000 cells/well in a 96-well format.
(§2) To induce fibrogenic differentiation BM-MSCs were cultured in a medium composed by Dulbecco's Modified Eagle Medium, 2% horse serum (HS) (Sigma H1270) and 5-10 ng/ml TGF-beta-1 (PreproTech 100-21). Cells were cultured in basal media for 2 days before being switched to fibrogenic differentiation media for 5 days, after which they were taken down for downstream assays. Compound treatment was added when media was switched to fibrogenic differentiation media, cells were treated with 0.1% DMSO if not receiving compound.
(§3) Cells were fixed in 4% PFA for 10 min at RT. Fixed cells were washed three times in 1×PBS and incubated in permeabilization solution (0.5% Triton X-100 in 1×PBS) for 10 min. Unspecific binding were saturated by incubating samples in blocking solution (5% donkey serum in 1×PBS) for 1 h. The cells were incubated at RT for 1 hour with gentle shaking in the presence of primary antibody against, alpha-smooth muscle actin (1:1000, Sigma™ A5228). The cells were washed three times with 0.05% Tween-20 in 1×PBS and incubated, for 1 hour at RT, with host-specific secondary antibodies in addition to counterstaining for Alexa Fluor Plus 750 Phalloidin (1:2000, Invitrogen™, A30105) and DAPI (1:2000). Primary and secondary antibodies were diluted according to the manufacturer's recommendations in blocking solution+0.1% Triton X-100. Finally, the cells were washed three times with 0.05% Tween-20 in 1×PBS, washed twice with 1×PBS and stored at 4° C. Images were acquired on a Thermo Scientific™ CellInsight™ CX7LED high content analysis (HCA) imaging instrument using a 10× objective. Nine fields per well were captured for quantification.
Columbus™ software (version 2.9.1, Perkin Elmer®) was used for analysis of acquired images. A custom analysis pipeline was constructed to quantify the percentage of myofibroblasts within the well. First, nuclei were segmented using “Method B” and intensity and morphology properties were calculated using standard settings. Second, viable nuclei were identified by gating on nuclei intensity, area, and roundness of the segmented objects. Next, a region of interest was then defined around the selected viable nuclei by expanding the outer boarder by […]. STAR morphology and SER texture properties were calculated within the region of interest for the alpha-smooth muscle actin and phalloidin channels using the following parameters: profile width=4 px, scale=1 px, Kernel normalization. The calculated morphology and texture properties were used to train a linear classifier consisting of two classes, myofibroblasts and mesenchymal stem cells, by selecting >100 objects in each negative control (DMSO) and positive control (fibrogenic differentiation media) conditions. The linear classifier was then applied to the untrained test wells using a batch analysis to calculate the percentage of myofibroblasts within each image using a formula output (myofibroblasts:number of objects/viable nuclei:number of objects)*100. Results were averaged across the nine fields imaged per well.
The initial six NOX4 inhibitors were assessed in replicate experiments for both potency of myofibroblast reducing activity and an associated IC50 for the myofibroblast reduction phenotype was determined (Table 1).

In a further test the test system is mesenchymal stem cells. The test is described as follows: Phalloidin (F-actin) / alpha-SMA staining of treated mesenchymal stem cells. It is filed as cell-based, human. The following applies: 1 μM. The procedure: as §1, §2, §3

For `CN(C)c1cccc(-c2c3c(=O)n(-c4ccccc4Cl)[nH]c3cc(=O)n2C)c1` [FTX1620, Setanaxib], the IC50 in test [1] (Homo sapiens, BMMSC, first experiment, read-out: IC50 Phenotype (myofibroblast reduction)) came to 0.0773 µM; in test [1] (Homo sapiens, BMMSC, replicate experiment, read-out: IC50 Phenotype Replicate), 0.126 µM; in test [1] (replicate experiment, read-out: IC50 Phenotype Replicate) it was 0.126 µM. Besides, the “reduction of myofibroblast content (concentration-response)” value in test [1] (treated cells in culture) is reported as “reduced the myofibroblast content of treated cells in a dose-responsive manner”. The “phalloidin (F-actin) staining” value in the test with mesenchymal stem cells is reported as “significant phalloidin staining”. Also, the “α-SMA immunofluorescence and phalloidin (F-actin) staining” value with mesenchymal stem cells (FIG. 15) is “exhibited both α-SMA immunofluorescence and phalloidin (F-actin) staining”.
